For assay [1], the system named is mouse articular chondrocytes. To be noted: cited from earlier work.
In assay [2] the test system is Adipose-derived Mesenchymal Stem Cells (MSCs). Put plainly: RT-PCR mRNA expression analysis of chondrocyte markers relative to GAPDH. In kind it is cell-based, human. The following applies: Avn C treatment alone. The protocol: (§1) In Vitro Chondrogenic Differentiation: In Vitro, chondrogenic differentiation using monolayer culture was performed. P4 MSCs were seeded in Gelatin-coated 24 well plates at 6000 cells/cm2. MSCs were expanded for 3 days before switching to the following Chondrocyte differentiation media (CDM) for 21 days (FIG. 1A).
Standard chondrocyte differentiation medium (STD) consists of DMEM Low Glucose (DMEM LG; Gibco #31600083), supplemented with 0.5 µg/ml hydrocortisone (Sigma-Aldrich #H0888), 1% Fetal bovine serum (FBS; Biowest #S181B), 1 X Insulin-Transferrin-Selenium-X (ITS-X; Gibo #51500056) or ITS+1 Liquid Media Supplement (Sigma-Aldrich #I2521), 10ng/ml recombinant human TGF-beta 3 (R&D Systems #8420-B3-025), […] L-ascorbate-2-phosphate (Sigma-Aldrich #49752), 1% Penicillin-Streptomycin (pen-strep; Gibco #15140122) and 500ng/ml Amphotericin B (Amp B; Gibco #15290026). Standard CDM (STD) will be used as a control (FIG. 1A). […]
It is imperative to investigate the impact of Avn C on transcriptionally regulated chondrocyte properties, both when used individually and in conjunction with chondroitin sulfate at an optimal dosage of 500ug/mL (5X CS). To assess this, RT-PCR mRNA expression analysis is employed, which offers precise quantitative data on relative mRNA expressions. […]

Assay [3] has the same test system. Put plainly: Immunofluorescence analysis of chondrocyte marker proteins on day 21 of in vitro chondrogenic differentiation (monolayer culture). In kind it is cell-based, human. The protocol:
as §1
Standard chondrocyte differentiation medium (STD) consists of DMEM Low Glucose (DMEM LG; Gibco #31600083), supplemented with 0.5 µg/ml hydrocortisone (Sigma-Aldrich #H0888), 1% Fetal bovine serum (FBS; Biowest #S181B), 1 X Insulin-Transferrin-Selenium-X (ITS-X; Gibo #51500056) or ITS+1 Liquid Media Supplement (Sigma-Aldrich #I2521), 10ng/ml recombinant human TGF-beta 3 (R&D Systems #8420-B3-025), […] L-ascorbate-2-phosphate (Sigma-Aldrich #49752), 1% Penicillin-Streptomycin (pen-strep; Gibco #15140122) and 500ng/ml Amphotericin B (Amp B; Gibco #15290026). Standard CDM (STD) will be used as a control (FIG. 1A).
Standard chondrocyte differentiation medium (STD) or CDM1 is then supplemented with 3 different treatment groups: 100 nM Avenanthramide C (Avn C; Sigma-Aldrich #36465) in CDM2, 500 ug/mL Chondroitin Sulfate (5 x CS; Sigma-Aldrich #C4384) in CDM3, and combination of 100 nM Avenanthramide C and 500 ug/mL Chondroitin Sulfate in CDM4 (FIG. 1A). […]

Take `O=C(/C=C/c1ccc(O)c(O)c1)Nc1ccc(O)cc1C(=O)O` [Avn C, Avenanthramide C]: in assay [1] (induced by IL-1β in mouse articular chondrocytes), the “expression of catabolic factors MMP-3, -12, and -13” value is given as “effectively suppressed the expression of catabolic factors”. Further, the “IL-1β-mediated reduction of mature factors Collagen 2 (COL2A1) and SOX9” value in assay [1] (mouse articular chondrocytes) is reported as “did not impact the IL-1β-mediated reduction of mature factors”. Besides, the “COL2A1 expression, transcriptional versus protein level” value in assay [2] was “influences COL2A1 at protein levels (FIGS. 2 and 3) rather than at the transcriptional level”. Also, the “expression of the COL2A1 protein (immunofluorescence signals)” value in assay [3] (21-day treatment, CDM2 (STD + 100 nM Avn C) compared to CDM1 (STD)) is on record as “significantly increasing the expression of the COL2A1 protein”. Moreover, the “optimal concentration of Avn C for enhancing Collagen 2A1 protein signals” value in assay [3] (21 days in STD with 0 nM, 10 nM, 100 nM, 1 uM, 10 uM, 50 uM Avn C, MSCs from a different individual) is “around 100 nM”.

The values above are taken from EP4577640B1, “COMPOSITION COMPRISING AVENANTHRAMIDE C FOR INDUCING DIFFERENTIATION OF MESENCHYMAL STEM CELLS INTO CHONDROCYTES AND METHOD OF USING THE SAME” (Medeze Treasury Ptd. Ltd, priority 2023, dated 2025).
